This note sets out measurements from ChEMBL document CHEMBL4330129 (Bioorg Med Chem, 2019).

Structures are written as SMILES. Converted amounts (≈) assume the structure as drawn.

One series deals with Keap1/Nrf2 (Homo sapiens, UniProt Q14145+Q16236). Description: Binding affinity to FLAG/His-tagged Keap1 (unknown origin)/biotinylated full-length FLAG/His/Tev/Avi-tagged NRF2 (unknown origin) expressed in baculovirus infected Sf9 insect cells measured after 1 hr by TR-FRET assay.
The species named for another series is Homo sapiens. The series can be described thus: Activation of Keap1/Cul3/Nrf2 in NHBE cells assessed as induction of HO-1 gene expression at 10 uM after 24 hrs by RT-PCR analysis relative to SFN. Type of series: cell-based.
Series [1] in a line: Kinetic solubility of the compound at pH 7.4 by CLND method. The note with it: buffer, read-out: Kinetic_solubility. Format: physicochemical.
A short description of series [2]: Binding affinity to FLAG/His-tagged Keap1 (unknown origin)/biotinylated full-length FLAG/His/Tev/Avi-tagged Cul3 (unknown origin) expressed in baculovirus infected Sf9 insect cells measured after 1 hr by TR-FRET assay. Also noted: species or system Homo sapiens.
Series [3] is described as follows: Lipophilicity, log D of the compound at pH 7.4 by chromatographic method. Format: physicochemical. As to conditions: buffer.

Keap1/Nrf2, sequence (Q16236 whole entry): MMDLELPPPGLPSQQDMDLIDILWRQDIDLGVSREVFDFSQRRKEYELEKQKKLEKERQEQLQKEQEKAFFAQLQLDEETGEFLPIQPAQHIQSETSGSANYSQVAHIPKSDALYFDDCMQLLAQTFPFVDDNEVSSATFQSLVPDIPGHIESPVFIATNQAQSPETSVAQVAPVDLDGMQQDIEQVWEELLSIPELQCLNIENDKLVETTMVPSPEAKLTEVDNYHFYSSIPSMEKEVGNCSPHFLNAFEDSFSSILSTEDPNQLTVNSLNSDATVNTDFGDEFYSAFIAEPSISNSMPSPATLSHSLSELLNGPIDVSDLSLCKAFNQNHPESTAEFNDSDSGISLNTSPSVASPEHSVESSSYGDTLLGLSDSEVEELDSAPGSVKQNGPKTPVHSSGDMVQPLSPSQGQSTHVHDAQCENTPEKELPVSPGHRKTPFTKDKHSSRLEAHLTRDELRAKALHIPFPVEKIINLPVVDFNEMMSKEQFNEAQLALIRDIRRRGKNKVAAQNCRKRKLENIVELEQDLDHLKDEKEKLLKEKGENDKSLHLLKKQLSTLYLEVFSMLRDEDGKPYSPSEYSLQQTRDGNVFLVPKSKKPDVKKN
Keap1/Nrf2, sequence (Q14145 whole entry): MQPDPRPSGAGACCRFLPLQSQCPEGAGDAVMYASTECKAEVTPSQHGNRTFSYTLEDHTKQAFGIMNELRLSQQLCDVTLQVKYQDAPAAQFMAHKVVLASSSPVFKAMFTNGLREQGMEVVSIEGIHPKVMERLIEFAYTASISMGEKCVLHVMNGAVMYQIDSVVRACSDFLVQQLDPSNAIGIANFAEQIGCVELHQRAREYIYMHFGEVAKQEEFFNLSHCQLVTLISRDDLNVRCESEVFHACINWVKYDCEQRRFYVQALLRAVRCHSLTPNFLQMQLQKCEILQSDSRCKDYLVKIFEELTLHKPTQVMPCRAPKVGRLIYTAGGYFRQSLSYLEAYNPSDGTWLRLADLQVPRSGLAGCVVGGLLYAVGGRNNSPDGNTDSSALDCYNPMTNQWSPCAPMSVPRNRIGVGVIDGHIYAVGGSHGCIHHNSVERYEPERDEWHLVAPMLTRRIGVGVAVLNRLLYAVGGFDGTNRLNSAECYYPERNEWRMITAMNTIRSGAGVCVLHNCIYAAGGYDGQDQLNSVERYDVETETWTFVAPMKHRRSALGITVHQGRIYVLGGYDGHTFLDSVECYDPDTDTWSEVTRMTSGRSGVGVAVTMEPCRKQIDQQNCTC

With `COCCOC(=O)NCCCCN=C=S`, the IC50 on Keap1/Nrf2 was greater than 100 µM. Further, the fold change (FC) in the series filed under Homo sapiens was determined as 0.17. In addition, the solubility kinetic in series [1] turned out to be 1 µM (≈ 0.232 µg/mL). Also, the negative-log IC50 (pIC50) in series [2] was less than 4.

`O=C(CC1CCCCC1)NCCCCN=C=S`: the concentration for half-maximal inhibition (IC50) at Keap1/Nrf2 was 25.1 µM. Further, the fold change (FC) in the series filed under Homo sapiens came out at 11.5. Besides, in series [1], the solubility kinetic was no less than 413 µM. Further, the pIC50 in series [2] turned out to be 4.8.

In turn, `COC(=O)[C@H](CSC(=S)NCCCC[S+](C)[O-])NC(C)=O` (stereo partly drawn) showed an IC50 at Keap1/Nrf2 greater than 100 µM. For the same compound, in the series listed under Homo sapiens, the fold change (FC) came to 0.85. The solubility kinetic in series [1] was no less than 510 µM. This compound showed a pIC50 in series [2] of less than 4. In series [3], the chromatographic logD amounted to 1.04.

`CC(=O)NCCS(=O)(=O)CCCCN=C=S`: the IC50 at Keap1/Nrf2 is greater than 100 µM. Besides, in the series filed under Homo sapiens, the fold change (FC) came to 0.37. Besides, in series [1], the solubility kinetic was no less than 422 µM. Further, the negative logarithm of the IC50 (pIC50) in series [2] amounted to 4.2. The compound also gave a chromatographic logD in series [3] of 1.8.

On Keap1/Nrf2, `O=C(NCCCCN=C=S)Nc1ccc2c(c1)OCCO2` showed a half-maximal inhibitory concentration (IC50) of 15.8 µM. The fold change (FC) in the series listed under Homo sapiens was 0.65. Further, the solubility kinetic in series [1] worked out at 131 µM (≈ 40.3 µg/mL). The pIC50 in series [2] worked out at 4.9. Besides, the chromatographic logD in series [3] was 4.04.

`CC(C)(C)OC(=O)N1CCC(SC(=S)NCCCCNC(=O)Nc2cccnc2)CC1` showed a 50% inhibitory concentration (IC50) at Keap1/Nrf2 of 50.1 µM. For the same compound, the fold change (FC) in the series listed under Homo sapiens stood at 2.88. For the same compound, the solubility kinetic in series [1] came out at 114 µM (≈ 53.3 µg/mL). Besides, the pIC50 in series [2] came out at 4.3. The compound also registered a chromatographic logD in series [3] of 4.97.

On Keap1/Nrf2, `COC(=O)C(C[S+]([O-])CCCCN=C=S)NC(C)=O` (stereo not drawn) showed a concentration for half-maximal inhibition (IC50) greater than 100 µM. Besides, the fold change (FC) in the series filed under Homo sapiens worked out at 0.11. In series [1], the solubility kinetic worked out at 279 µM (≈ 85.5 µg/mL). The compound further came in with a pIC50 in series [2] of less than 4. For the same compound, the chromatographic logD in series [3] is 1.61.

In turn, `O=C(NCCCCN=C=S)Nc1ccncc1` showed an IC50 at Keap1/Nrf2 of 31.6 µM. Also, in the series listed under Homo sapiens, the fold change (FC) stood at 15.3. The solubility kinetic in series [1] was determined as 400 µM (≈ 100 µg/mL). Further, the pIC50 in series [2] worked out at 4.7. The chromatographic logD in series [3] came out at 2.6.

As to `CN1CCC(SC(=S)NCCCCNC(=O)NC2CCCC2)CC1`, the IC50 at Keap1/Nrf2 is 39.8 µM. Besides, in the series filed under Homo sapiens, the fold change (FC) amounted to 19.3. In addition, the solubility kinetic in series [1] is no less than 245 µM. Moreover, the negative-log IC50 (pIC50) in series [2] is reported as 4.5. The chromatographic logD in series [3] is 2.33.

On Keap1/Nrf2, `CCNC(=O)N1CCC(SC(=S)NCCCCNC(=O)NCc2ccccc2)CC1` had a 50% inhibitory concentration (IC50) of 63.1 µM. For the same compound, in the series listed under Homo sapiens, the fold change (FC) amounted to 81.8. For the same compound, in series [1], the solubility kinetic is 255 µM (≈ 115 µg/mL). In series [2], this compound returned a pIC50 of 4.4. In addition, the chromatographic logD in series [3] was 3.43.

In the case of `CC(=O)NCCSC(=S)NCCCC[S+](C)[O-]` (stereo not drawn), the IC50 on Keap1/Nrf2 was greater than 100 µM. Besides, the solubility kinetic in series [1] is no less than 531 µM. This compound also gave a chromatographic logD in series [3] of 0.58.

On to `O=C(NCCCCN=C=S)c1cccnc1`, for which the IC50 at Keap1/Nrf2 was 50.1 µM. Moreover, the fold change (FC) in the series listed under Homo sapiens is 1.78. Besides, in series [1], the solubility kinetic was no less than 289 µM. In series [2], this compound yielded a pIC50 of 4.1. Besides, the chromatographic logD in series [3] came out at 2.63.

`CN(C)C(=O)/C=C/CCCCC[S+](C)[O-]` (stereo not drawn): in the series filed under Homo sapiens, the fold change (FC) is 0.11.

As to `CC(=O)NCC[S+]([O-])CCCCN=C=S` (stereo not drawn), on Keap1/Nrf2, the IC50 was greater than 100 µM. Besides, the fold change (FC) in the series filed under Homo sapiens was 0.15. In series [1], the solubility kinetic is no less than 180 µM. In series [2], this compound had a pIC50 of less than 4. The chromatographic logD in series [3] is 1.09.

On to `CN1CCC(SC(=S)NCCCC[S+](C)[O-])CC1` (stereo not drawn), for which the IC50 at Keap1/Nrf2 was greater than 100 µM. Moreover, in the series listed under Homo sapiens, the fold change (FC) turned out to be 0.93. Moreover, the solubility kinetic in series [1] was no less than 536 µM. This compound also yielded a pIC50 in series [2] of less than 4. Further, the chromatographic logD in series [3] was 0.81.

In the case of `CN1CCC(SC(=S)NCC2CCS(=O)(=O)C2)CC1` (stereo not drawn), the IC50 on Keap1/Nrf2 was greater than 100 µM. For the same compound, the fold change (FC) in the series listed under Homo sapiens was 0.38. Besides, the solubility kinetic in series [1] was no less than 331 µM. This compound also came in with a negative-log IC50 (pIC50) in series [2] of less than 4. This compound also came in with a chromatographic logD in series [3] of 1.03.

`CNC(=O)NCCCCNC(=S)SC1CCN(C(=O)OC(C)(C)C)CC1` had a half-maximal inhibitory concentration (IC50) on Keap1/Nrf2 greater than 100 µM. For the same compound, in the series filed under Homo sapiens, the fold change (FC) was found to be 0.59. In series [1], the solubility kinetic was no less than 377 µM. In series [2], this compound yielded a negative logarithm of the IC50 (pIC50) of less than 4. The chromatographic logD in series [3] is 4.58.

The compound `O=S(=O)(CCCCN=C=S)CCN1CCOCC1` gave a half-inhibitory concentration (IC50) on Keap1/Nrf2 greater than 100 µM. Moreover, the fold change (FC) in the series filed under Homo sapiens came out at 0.22. For the same compound, the solubility kinetic in series [1] was 273 µM (≈ 79.8 µg/mL). This compound also returned a pIC50 in series [2] of less than 4. In series [3], the chromatographic logD came to 2.93.

Take `CN(C)C(=O)/C=C/CCCCCS(C)(=O)=O`: the fold change (FC) in the series filed under Homo sapiens worked out at 0.13.

On to `CN(C)C(=O)/C(C#N)=C/CCCCCS(C)(=O)=O`, for which the fold change (FC) in the series filed under Homo sapiens was 0.18.

With `CSc1c(N(C)CCCC[S+](C)[O-])c(=O)c1=O` (stereo not drawn), the fold change (FC) in the series listed under Homo sapiens was found to be 0.14.

Take `CNC(=O)CCCCN=C=S`: the half-maximal inhibitory concentration (IC50) on Keap1/Nrf2 was greater than 100 µM. Besides, the fold change (FC) in the series filed under Homo sapiens was determined as 0.7. The pIC50 in series [2] was found to be 4.1.

In the case of `CN(C)C(=O)/C(C#N)=C/CCCCC[S+](C)[O-]` (stereo not drawn), the fold change (FC) in the series filed under Homo sapiens is 0.33.

On Keap1/Nrf2, `O=C(NCCCCN=C=S)C1CCCCC1` gave an IC50 of 50.1 µM. The fold change (FC) in the series filed under Homo sapiens is 1.13. Further, the solubility kinetic in series [1] is 369 µM (≈ 88.7 µg/mL). Further, the pIC50 in series [2] was found to be 4.4.

Consider `C[S+]([O-])CCCCCCN=C=S` (stereo not drawn), for which the IC50 on Keap1/Nrf2 was greater than 100 µM. Also, in series [1], the solubility kinetic was no less than 324 µM. For the same compound, the chromatographic logD in series [3] was found to be 0.9.

On Keap1/Nrf2, `CN(C)C(=O)CCCCN=C=S` gave a half-inhibitory concentration (IC50) greater than 100 µM. Further, the fold change (FC) in the series listed under Homo sapiens is 0.71. In series [2], the pIC50 is reported as 4.2.

The compound `CN1CCC(SC(=S)NCCCCNC(=O)CC2CCCCC2)CC1` showed an IC50 on Keap1/Nrf2 of 15.8 µM. For the same compound, the fold change (FC) in the series listed under Homo sapiens was 11.5. The negative logarithm of the IC50 (pIC50) in series [2] worked out at 5. The compound further showed a chromatographic logD in series [3] of 3.28.

At Keap1/Nrf2, `O=C(NCCCCN=C=S)OCc1ccccc1` showed an IC50 of 12.6 µM. Moreover, the fold change (FC) in the series listed under Homo sapiens stood at 0.63. This compound displayed a pIC50 in series [2] of 5.1.

`CC(C)(C)OC(=O)N1CCC(SC(=S)NCCCCNC(=O)Nc2ccc3c(c2)OCCO3)CC1`: at Keap1/Nrf2, the 50% inhibitory concentration (IC50) is 31.6 µM. Further, the fold change (FC) in the series filed under Homo sapiens came to 74.8. In series [2], the negative logarithm of the IC50 (pIC50) came to 4.4. Further, the chromatographic logD in series [3] stood at 5.79.

Turning to `CN1CCC(SC(=S)NCCCCNC(=O)Nc2ccc3c(c2)OCCO3)CC1`, on Keap1/Nrf2, the IC50 is 12.6 µM. For the same compound, in the series filed under Homo sapiens, the fold change (FC) came to 23.6. Besides, the pIC50 in series [2] is reported as 5. Moreover, the chromatographic logD in series [3] came to 2.24.

As for `CC(C)(C)OC(=O)N1CCC(SC(=S)NCCCCNC(=O)Nc2ccc3ncsc3c2)CC1`, the half-maximal inhibitory concentration (IC50) at Keap1/Nrf2 is 31.6 µM. The fold change (FC) in the series listed under Homo sapiens came out at 18.3. The compound further had a negative logarithm of the IC50 (pIC50) in series [2] of 4.7. The compound also came in with a chromatographic logD in series [3] of 5.45.

For `O=C(NCCCCN=C=S)Nc1ccc2scnc2c1`, the IC50 on Keap1/Nrf2 was 5.01 µM. For the same compound, in the series listed under Homo sapiens, the fold change (FC) came out at 3.75. The compound also came in with a pIC50 in series [2] of 5.2. The compound further showed a chromatographic logD in series [3] of 3.77.

`O=C(NCCCN=C=S)OCc1ccccc1`: the 50% inhibitory concentration (IC50) at Keap1/Nrf2 was 5.01 µM. Further, the fold change (FC) in the series listed under Homo sapiens came out at 32.2. Besides, in series [2], the pIC50 was 5.

As to `CN1CCC(SC(=S)NCCCCNC(=O)Nc2ccc3ncsc3c2)CC1`, the half-inhibitory concentration (IC50) on Keap1/Nrf2 was 7.94 µM. In addition, in the series listed under Homo sapiens, the fold change (FC) was 25.5. The same compound had a pIC50 in series [2] of 5.4. This compound also registered a chromatographic logD in series [3] of 1.91.

In the case of `CC(=O)NCCCCN=C=S`, at Keap1/Nrf2, the IC50 is greater than 100 µM. Besides, the fold change (FC) in the series listed under Homo sapiens came out at 0.54. In addition, in series [2], the negative logarithm of the IC50 (pIC50) came to 4.2.

On to `CC[S+]([O-])C(=O)N(CCCC[S+](C)[O-])Cc1ccccc1` (stereo not drawn), for which the fold change (FC) in the series listed under Homo sapiens was 0.27.
